According to patent publication US10815276B2, “Cell penetrating peptides and methods of making and using thereof” (Entrada Therapeutics, Inc., priority 2014, dated 2020):
Where two headings read alike, the source gives them in different places. Starred links: 1 amine or outer side, 2 acyl side, 3 side chain; linkers in the order of their positions; H or OH if unused. Positions of bridges follow the written chain, without caps; N, C: chain ends. Non-standard residues stand in square brackets, D forms with d. Residues, ends and D or L forms follow the SMILES beside them. Groups on a side chain read outwards from the residue. Trimesoyl = O=C(c1cc(C(=O)[*:2])cc(C(=O)[*:3])c1)[*:1]; d(pT) = C[C@H](OP(=O)(O)O)[C@@H](N)C(=O)O; Phe(4-F) = N[C@@H](Cc1ccc(F)cc1)C(=O)O; 2Nal = N[C@@H](Cc1ccc2ccccc2c1)C(=O)O; NMeF = CN[C@@H](Cc1ccccc1)C(=O)O; Pip = O=C(O)[C@@H]1CCCCN1; Dap = NC[C@H](N)C(=O)O; Sar = CNCC(=O)O

How the values were obtained:
[1] = Serum stability test (25% human serum); type: in vitro ADME; settings: 37° C.
Experimental: The stability tests were carried by modifying a previously reported procedure (Nguyen, L T et al. […] At various time points (0-6 h), 200-μL aliquots were withdrawn and mixed with 50 μl of 15% trichloroacetic acid and incubated at 4° C. overnight. The final mixture was centrifuged at 15,000 rpm for 10 min in a microcentrifuge, and the supernatant was analyzed by reversed-phase HPLC equipped with a C18 column (Waters). The amount of remaining peptide (%) was determined by integrating the area underneath the peptide peak (monitored at 214 nm) and compared with that of the control reaction (no serum).

Pin1 [2] = target: T1, Pin1 (Homo sapiens, UniProt Q13526, S16A/Y23A); test: Fluorescence anisotropy binding to Pin1; settings: FITC-labeled peptide, FA analysis
T1 construct: The full-length human S16A/Y23A mutant Pin1 was expressed and purified from E. coli; made in house
Experimental: The gene coding for the catalytic domain of PTP1B (amino acids 1-321) was amplified by the polymerase chain reaction using PTP1B cDNA as template and oligonucleotides 5′-[…]-3′ and 5′-[…]-3′ as primers. […] Expression and purification of the ybbR-tagged PTP1B were carried out as previously described (Ren, L et al. Biochemistry 2011, 50, 2339-2356). […] The reaction mixture was passed through a G-25 fast-desalting column equilibrated in 30 mM HEPES, pH 7.4, 150 mM NaCl to remove any free dye molecules. The full-length human S16A/Y23A mutant Pin1 was expressed and purified from E. coli as previously described (Liu, T et al. J. Med. Chem. 2010, 53, 2494-2501).
FA experiments were carried out by incubating 100 nM FITC-labeled peptide with varying concentrations of protein in 20 mM HEPES (pH 7.4), 150 mM NaCl, 2 mM magnesium acetate, and 0.1% bovine serum albumin (BSA) for 2 h at room temperature. The FA values were measured on a Molecular Devices Spectramax M5 plate reader, with excitation and emission wavelengths at 485 and 525 nm, respectively. Equilibrium dissociation constants (KD) were determined by plotting the FA values as a function of protein concentration and fitting the curve to the following equation:
[formula] where Y is the FA value at a given protein concentration x, L is the peptide concentration, Qb/Qf is the correction factor for fluorophore-protein interaction, Amax is the maximum FA value when all of the peptides are bound to protein, while Amin is the minimum FA value when all of the peptides are free. FA competition assay was performed by incubating 100 nM FITC-labeled Pin1 inhibitor 5 with 1 μM Pin1, followed by the addition of 0-5 μM unlabeled inhibitor. The FA values were measured similarly on a pate reader. IC50 values were obtained by plotting the FA values against the competitor concentration and curve fitting using the four-parameter dose-response inhibition equation (Prism 6, GraphPad).

HeLa cells [3] = test: MTT proliferation assay with Pin1 inhibitors; type: cell-based, human; settings: MTT
Experimental: HeLa cells (100 μL/each well, 5×10^4 cells/mL) were seeded in a 96-well culture plate and allowed to grow overnight in DMEM supplemented with 10% FBS. […] After that, 10 μL of a MTT stock solution (5 mg/mL) was added into each well. The plate was incubated at 37° C. for 4 h and 100 μL of SDS-HCl solubilizing solution was added into each well, followed by thorough mixing. The plate was incubated at 37° C. overnight and the absorbance of the formazan product was measured at 570 nm on a Molecular Devices Spectramax M5 plate reader. Each experiment was performed in triplicates and the cells untreated with peptide were used as control.

Jurkat cells = test: In cellulo fluorimetric caspase assay; type: cell-based; settings: staurosporin-treated cells, 5 μM peptide, 10-h period
Experimental: 100 μL of Jurkat cell suspension (5×10^5 cells/mL) was seeded in 96-well plate one hour prior to the experiment. Ten μL of staurosporine stock solution (10 μM) was added into half of the wells to induce apoptosis, while 10 μL of media was added to the other wells. After 1 h incubation, caspase-3 fluorogenic substrates were added to the cells to a final concentration of 5 μM. The fluorescence of the released coumarin was measured on the Spectramax M5 plate reader with excitation and emission wavelengths at 360 and 440 nm at various times points (0-6 h). The fluorescence unit (FU) increases between induced and uninduced cells were plotted against the time to present caspase-3 activities measured using various fluorogenic substrates in living cell in real-time. Three independent sets of experiments, each performed in triplicate, were conducted.
Jurkat cells were pretreated with the kinase inhibitor staurosporin to induce caspase activities and thus apoptosis (Belmokhtar, C A et al. Biochem. J. 1996, 315, 21). These cells were then incubated with peptides 3-7 and the amount of Amc released was monitored at various time points (0-10 h). […] Peptide 4 produced the fastest fluorescence increase, reaching 459 fluorescence units (FU), followed by peptides 7 and 6. […] This slow rate of AMC release can be attributed to hydrolysis by other intracellular proteases and peptidases. Consistent with this interpretation, pretreatment of Jurkat cells with a pancaspase inhibitor Z-VAD(OMe)-FMK (Slee, E A et al. Biochem J. 1996, 315, 21) followed by incubation with peptide 4 released AMC at a rate that was similar to that of peptide 5 alone. One explanation of the above observations is that both peptides 4 and 5 can enter the cell interior efficiently, but only peptide 4 can be converted into the linear caspase substrate inside the cells.

Pin1 [4] = target: T1, Pin1; test: Pin1 binding by FA (FITC-labeled peptides)
HeLa cells [5] = test: Cellular uptake by flow cytometry; type: cell-based, human; settings: 5 μM FITC-labeled peptide, 2 h
Experimental: The cellular uptake efficiency of peptide 37, peptide 1, and a previously reported membrane-impermeable monocyclic Pin1 inhibitor (Table 18, peptide 46) was assessed by incubating HeLa cells with the FITC-labeled peptides (5 μM) for 2 h and quantifying the total intracellular fluorescence by flow cytometry analysis. […] By contrast, cells treated with peptides 1 and 37 gave MFI values of 2562 and 8792, respectively. Thus, peptide 37 is internalized by HeLa cells ˜4-fold more efficiently than peptide 1. Presumably, the negative charged phosphate group of peptide 1 interacted electrostatically with the positively charged CPP motif and reduced the cellular uptake efficiency of the latter.

HeLa cells [6] = settings: MTT
From the text: The effect of peptide 37 on the growth of HeLa cells was examined by using the MTT cell viability assay.

HeLa cells [7] = test: Western blot of PML protein level; type: cell-based, human; settings: 0.2-5 μM
Experimental: FIGS. 38A, 38B, 38C, and 38D display cellular activity of peptide 37. (FIG. 38A) Cellular uptake of peptides 1, 37, and 46 (5 μM) by HeLa cells as analyzed by flow cytometry. MFI, mean fluorescence intensity; none, untreated cells (no peptide). (FIG. 38B) Anti-proliferative effect of peptides 37, 46, and 47 on HeLa cells as measured by MTT assay. (FIG. 38C) Western blots showing the effect of peptides 1, 37 and 47 on the protein level of PML in HeLa cells. β-Actin was used as loading control. (FIG. 38D) Quantification of western blot results from (FIG. 38C). Data reported were after background subtraction and represent the mean±SD from 3 independent experiments.
Finally, to ascertain that Pin1 is the molecular target of peptide 37 in vivo, the intracellular protein level of a well-established Pin1 substrate, […] (PML), was examined by western blot analysis. Pin1 negatively regulates the PML level in a phosphorylation-dependent manner and inhibition of Pin1 activity is expected to stabilize PML and increase its intracellular level. […] The effect was already significant at 0.2 μM inhibitor (1.8-fold increase in the PML level) and plateaued at ˜1 μM (3.3-fold increase). Again, bicyclic peptide 47 had no effect under the same conditions, while peptide 1 (the positive control, at 5 μM) increased the PML level by 3.1-fold.

N=C(N)NCCC[C@H](NC(=O)[C@H](CCCNC(=N)N)NC(=O)[C@H](CCCNC(=N)N)NC(=O)[C@H](CCC(N)=O)NC(=O)[C@H](CCCNC(=N)N)NC(=O)[C@H](CCCNC(=N)N)NC(=O)[C@H](CCCCN)NC(=O)[C@H](CCCCN)NC(=O)[C@H](CCCNC(=N)N)NC(=O)CNC(=O)[C@@H](N)Cc1ccc(O)cc1)C(N)=O [Tat]
half-life [1]: ~30 min

C[C@@H]1NC(=O)[C@H](CCCNC(=N)N)NC(=O)[C@H](Cc2ccc3ccccc3c2)NC(=O)[C@@H]2CCCCN2C(=O)[C@@H](CC(=O)O)NC(=O)CN(C)C(=O)[C@@H]2CCCN2C(=O)c2cc3cc(c2)C(=O)NC[C@@H](C(=O)N[C@@H](CCCCN)C(N)=O)NC(=O)[C@H](CCCNC(=N)N)NC(=O)[C@H](CCCNC(=N)N)NC(=O)[C@H](CCCNC(=N)N)NC(=O)[C@H](CCCNC(=N)N)NC(=O)[C@H](Cc2ccc4ccccc4c2)NC(=O)[C@H](Cc2ccccc2)NC(=O)[C@H](CNC3=O)NC1=O [Peptide 9, bicyclo[Tm-(Pro-Sar-D-Asp-Pip-Nal-Arg-Ala)-Dap-(Phe-Nal-Arg-Arg-Arg-Arg-Dap)]-Lys] (P[Sar][dD][Pip][2Nal]RA[Dap]F[2Nal]RRRR[Dap]K-NH2; linker N-8-15 via Trimesoyl; C-terminus assumed)
KD (Pin1 [2]): abolished Pin1 inhibitory activity | Effect on cell growth (HeLa cells [3]): no effect

C[C@@H]1NC(=O)[C@H](CCCNC(=N)N)NC(=O)[C@H](Cc2ccc3ccccc3c2)NC(=O)[C@@H]2CCCCN2C(=O)[C@@H](CC(=O)O)NC(=O)CN(C)C(=O)[C@@H]2CCCN2C(=O)c2cc3cc(c2)C(=O)NC[C@H](NC(=O)[C@@H](C)NC1=O)C(=O)N[C@@H](Cc1ccccc1)C(=O)N[C@@H](Cc1ccc2ccccc2c1)C(=O)N[C@@H](CCCNC(=N)N)C(=O)N[C@@H](CCCNC(=N)N)C(=O)N[C@@H](CCCNC(=N)N)C(=O)N[C@@H](CCCNC(=N)N)C(=O)N[C@H](C(=O)N[C@@H](CCCCN)C(N)=O)CNC3=O [Peptide 3, bicyclo[Tm-(Pro-Sar-D-Asp-Pip-Nal-Arg-Ala-D-Ala)-Dap-(Phe-Nal-Arg-Arg-Arg-Arg-Dap)]-Lys] (P[Sar][dD][Pip][2Nal]RA[dA][Dap]F[2Nal]RRRR[Dap]K-NH2; linker N-9-16 via Trimesoyl)
Fluorescence increase (released Amc) (Jurkat cells): little fluorescence increase

C[C@@H]1NC(=O)[C@H](CCCNC(=N)N)NC(=O)[C@H](Cc2ccc3ccccc3c2)NC(=O)[C@@H]2CCCCN2C(=O)[C@@H]([C@H](C)O)NC(=O)[C@H](Cc2ccc(F)cc2)NC(=O)[C@@H](Cc2ccccc2)NC(=O)c2cc3cc(c2)C(=O)NC[C@H](NC(=O)[C@@H](C)NC1=O)C(=O)N[C@@H](Cc1ccccc1)C(=O)N[C@@H](Cc1ccc2ccccc2c1)C(=O)N[C@@H](CCCNC(=N)N)C(=O)N[C@@H](CCCNC(=N)N)C(=O)N[C@@H](CCCNC(=N)N)C(=O)N[C@@H](CCCNC(=N)N)C(=O)N[C@H](C(=O)N[C@@H](CCCCN)C(N)=O)CNC3=O [Peptide 4, bicyclo[Tm-(D-Phe-Fpa-D-Thr-Pip-Nal-Arg-Ala-D-Ala)-Dap-(Phe-Nal-Arg-Arg-Arg-Arg-Dap)]-Lys] ([dF][Phe(4-F)][dT][Pip][2Nal]RA[dA][Dap]F[2Nal]RRRR[Dap]K-NH2; linker N-9-16 via Trimesoyl; C-terminus assumed)
Fluorescence increase (released Amc) (Jurkat cells): 459 FU

C[C@H](OP(=O)(O)O)[C@H]1NC(=O)CN(C)C(=O)[C@@H](C)NC(=O)[C@H](CCC(=O)N[C@@H](CCCCN)C(N)=O)NC(=O)[C@H](Cc2ccc(O)cc2)NC(=O)[C@H](Cc2ccc3ccccc3c2)NC(=O)[C@@H]2CCCCN2C1=O [Peptide 46, cyclo(D-Ala-Sar-D-pThr-Pip-Nal-Tyr-Gln)-Lys, reference compound] (cyclo([dA][Sar][d(pT)][Pip][2Nal]YE([Lys-NH2])); ring closure inferred)
Effect on cell growth (HeLa cells [3]): no effect | Kd (Pin1 [4]): 240 ± 40 nM | Mean fluorescence intensity (MFI) (HeLa cells [5]): 193 | Effect on cell growth (HeLa cells [6]): neither peptide 46 nor 47 had any effect

C[C@@H]1NC(=O)[C@H](CCCNC(=N)N)NC(=O)[C@H](Cc2ccc3ccccc3c2)NC(=O)[C@@H]2CCCCN2C(=O)[C@@H]([C@H](C)O)NC(=O)CNC(=O)[C@H](Cc2ccccc2)N(C)C(=O)c2cc3cc(c2)C(=O)NC[C@H](NC(=O)[C@@H](C)NC1=O)C(=O)N[C@@H](Cc1ccccc1)C(=O)N[C@@H](Cc1ccc2ccccc2c1)C(=O)N[C@@H](CCCNC(=N)N)C(=O)N[C@@H](CCCNC(=N)N)C(=O)N[C@@H](CCCNC(=N)N)C(=O)N[C@@H](CCCNC(=N)N)C(=O)N[C@H](C(=O)N[C@@H](CCCCN)C(N)=O)CNC3=O [Peptide 5, bicyclo[Tm-(Mpa-Gly-D-Thr-Pip-Nal-Arg-Ala-D-Ala)-Dap-(Phe-Nal-Arg-Arg-Arg-Arg-Dap)]-Lys] ([NMeF]G[dT][Pip][2Nal]RA[dA][Dap]F[2Nal]RRRR[Dap]K-NH2; linker N-9-16 via Trimesoyl; C-terminus assumed)
Fluorescence increase (released Amc) (Jurkat cells): 99 FU

bicyclo[Tm-(D-Ala-Sar-D-Thr-D-Ala-Nal-Arg-Ala-D-Ala)-Dap-(Phe-Nal-Arg-Arg-Arg-Arg-Dap)]-Lys [Peptide 47]
KD (μM) (Pin1 [4]; FITC-labeled peptide, FA): No | Effect on the PML level (HeLa cells [7]): no effect | Effect on cell growth (HeLa cells [6]): neither peptide 46 nor 47 had any effect
